Data published in patent US20200317660A1, “Quinazolinone Compound and Application Thereof” (LUOXIN PHARMACEUTICAL (SHANGHAI) CO., LTD., priority 2017, published 2020).

Columns and labels:
PI3Kα = biological target: T1, PI3Kα (Homo sapiens, UniProt P42336); experiment: In vitro test of enzyme activity (ADP-Glo lipokinase), PI3K alpha; assay type: biochemical; settings: 40 μM ATP, 50 μM PIP2:3PS, 120 min
T1 construct: purchased Millipore 14-602-K

[1] = In vivo DMPK study in mice after a single administration; set-up: species or system female Balb/c mice; settings: female, Balb/c, mouse, plasma, intravenous 1 mg/kg
Procedure: Experimental objective: female Balb/c mice were used as the test animals, and the blood concentration of the compound was determined and the pharmacokinetic behavior was evaluated after a single administration.
Experimental operation: 12 healthy adult female Balb/c mice were selected, 6 for intravenous injection group and 6 for oral administration group. The compound to be tested was mixed with an appropriate amount of intravenous injection group vehicle (10% HP-betaCD: 10% solutol=1:1, pH=8), vortex-mixed and sonicated to prepare a 1.0 mg/mL clear solution, followed by filtration for subsequent use; the vehicle in the oral group was 0.5% MC/0.2% Tw80. After the test compound and the vehicle were mixed, it was vortex-mixed and sonicated to prepare a 1.0 mg/mL homogeneous suspension for subsequent use. After an intravenous administration at a dose of 1 mg/kg or an oral administration at the dose of 2 mg/kg and 10 mg/kg, whole blood of the mice was collected for a certain period of time to prepare plasma. The drug concentration was analyzed by LC-MS/MS method, and Phoenix WinNonlin software was used (Pharsight, USA) to calculate the pharmacokinetic parameters.
Cmax: the highest concentration of the drug in the body; F %: oral bioavailability; Oral DNAUC: area under the dose normalization curve; Vd: apparent volume of distribution; Cl: clearance rate; T1/2: half-life.

[2] = tested on: human ovarian cancer SK-OV-3 cells; experiment: Subcutaneous xenograft tumor model of human ovarian cancer SK-OV-3 cells; assay type: in vivo, BALB/c nude mouse; settings: SK-OV-3 xenograft, 30 mpk
Procedure: (2) BALB/c nude mouse subcutaneous xenograft tumor model of human ovarian cancer SK-OV-3 cells
Human ovarian cancer SK-OV-3 cells (ECACC-91091004) were subjected to in vitro monolayer culture, and the culture conditions were: McCoy's 5a medium (Gibco, 16600-082) with 10% fetal bovine serum and 100 U/mL penicillin and 100 µg/mL streptomycin, 37° C. and 5% CO2 incubator. The cells were passaged by digestion with trypsin-EDTA twice a week. When the cells saturation reached 80%-90%, the cells were collected, counted, and inoculated.
0.2 mL of 10×10^6 SK-OV-3 cells were subcutaneously inoculated into the right back of each nude mouse (PBS:Matrigel=1:1). When the average tumor volume reached 200 mm^3, 48 tumor-bearing mice were divided into 8 groups by stratified random method with 6 mice in each group, which were administered on the day of grouping.
Preparation of Test Substance
Vehicle group: 2.0 g of methyl cellulose was weighed in a 500 mL glass bottle, followed by addition of 399.2 mL of ddH2O and 0.8 mL of Tween 80. […]
The experimental index was to evaluate whether the tumor growth was inhibited, delayed or cured. The diameter of the tumor was measured with a vernier caliper twice a week. […]
The antitumor efficacy of the compound was evaluated by TGI (%) or relative tumor proliferation rate T/C (%). […]

PI3Kδ = biological target: T2, PI3Kδ (Homo sapiens, UniProt O00329); experiment: In vitro test of enzyme activity (ADP-Glo lipokinase), PI3K delta; assay type: biochemical; settings: 40 μM ATP, 50 μM PIP2:3PS, 120 min
T2 construct: purchased Millipore 14-604-K
T2 sequence (O00329 whole entry): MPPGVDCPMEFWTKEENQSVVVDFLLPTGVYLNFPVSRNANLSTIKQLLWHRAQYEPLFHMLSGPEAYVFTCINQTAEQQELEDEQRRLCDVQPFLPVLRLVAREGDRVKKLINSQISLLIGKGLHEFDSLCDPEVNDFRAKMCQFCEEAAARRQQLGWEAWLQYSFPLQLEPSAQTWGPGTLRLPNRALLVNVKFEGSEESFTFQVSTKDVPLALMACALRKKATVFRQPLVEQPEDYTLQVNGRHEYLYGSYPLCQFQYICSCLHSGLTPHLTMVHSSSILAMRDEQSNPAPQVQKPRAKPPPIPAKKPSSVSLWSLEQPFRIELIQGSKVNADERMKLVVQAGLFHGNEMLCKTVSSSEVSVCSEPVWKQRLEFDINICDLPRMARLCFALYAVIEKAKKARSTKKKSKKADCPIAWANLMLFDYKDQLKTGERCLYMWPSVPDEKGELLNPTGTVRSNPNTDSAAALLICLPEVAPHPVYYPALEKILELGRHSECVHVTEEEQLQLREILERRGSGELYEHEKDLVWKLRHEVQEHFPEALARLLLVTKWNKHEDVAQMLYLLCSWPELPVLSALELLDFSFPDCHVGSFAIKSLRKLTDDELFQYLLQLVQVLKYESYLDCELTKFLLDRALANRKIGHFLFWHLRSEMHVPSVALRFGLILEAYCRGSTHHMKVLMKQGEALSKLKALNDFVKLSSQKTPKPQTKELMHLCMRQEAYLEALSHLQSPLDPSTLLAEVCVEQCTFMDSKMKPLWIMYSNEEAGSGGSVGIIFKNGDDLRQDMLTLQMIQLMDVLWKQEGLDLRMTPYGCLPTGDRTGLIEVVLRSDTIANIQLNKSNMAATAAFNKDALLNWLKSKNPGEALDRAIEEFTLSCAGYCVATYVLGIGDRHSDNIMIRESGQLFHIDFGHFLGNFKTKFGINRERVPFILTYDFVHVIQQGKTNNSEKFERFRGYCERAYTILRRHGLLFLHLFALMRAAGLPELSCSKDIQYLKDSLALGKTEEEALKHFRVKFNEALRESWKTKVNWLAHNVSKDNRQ
T2 sequence (P27986 whole entry partner): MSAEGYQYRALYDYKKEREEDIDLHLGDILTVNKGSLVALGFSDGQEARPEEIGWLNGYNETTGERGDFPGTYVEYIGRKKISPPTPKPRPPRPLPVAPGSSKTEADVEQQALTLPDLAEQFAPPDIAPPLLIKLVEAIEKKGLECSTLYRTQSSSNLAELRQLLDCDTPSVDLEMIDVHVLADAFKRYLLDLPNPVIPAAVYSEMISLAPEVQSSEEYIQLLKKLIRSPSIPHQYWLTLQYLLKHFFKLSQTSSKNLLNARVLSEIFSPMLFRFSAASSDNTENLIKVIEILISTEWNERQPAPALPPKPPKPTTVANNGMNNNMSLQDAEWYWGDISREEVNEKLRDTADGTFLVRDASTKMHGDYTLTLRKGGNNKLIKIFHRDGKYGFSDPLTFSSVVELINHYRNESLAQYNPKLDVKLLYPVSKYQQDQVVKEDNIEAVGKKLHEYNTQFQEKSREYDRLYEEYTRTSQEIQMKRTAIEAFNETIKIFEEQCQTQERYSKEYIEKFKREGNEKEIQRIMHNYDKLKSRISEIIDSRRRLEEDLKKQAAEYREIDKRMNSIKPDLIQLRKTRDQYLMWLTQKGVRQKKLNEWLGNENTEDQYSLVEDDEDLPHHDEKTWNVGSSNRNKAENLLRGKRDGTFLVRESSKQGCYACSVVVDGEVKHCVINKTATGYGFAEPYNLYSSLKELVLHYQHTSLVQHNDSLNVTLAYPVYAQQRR

T1 sequence (P42336 whole entry): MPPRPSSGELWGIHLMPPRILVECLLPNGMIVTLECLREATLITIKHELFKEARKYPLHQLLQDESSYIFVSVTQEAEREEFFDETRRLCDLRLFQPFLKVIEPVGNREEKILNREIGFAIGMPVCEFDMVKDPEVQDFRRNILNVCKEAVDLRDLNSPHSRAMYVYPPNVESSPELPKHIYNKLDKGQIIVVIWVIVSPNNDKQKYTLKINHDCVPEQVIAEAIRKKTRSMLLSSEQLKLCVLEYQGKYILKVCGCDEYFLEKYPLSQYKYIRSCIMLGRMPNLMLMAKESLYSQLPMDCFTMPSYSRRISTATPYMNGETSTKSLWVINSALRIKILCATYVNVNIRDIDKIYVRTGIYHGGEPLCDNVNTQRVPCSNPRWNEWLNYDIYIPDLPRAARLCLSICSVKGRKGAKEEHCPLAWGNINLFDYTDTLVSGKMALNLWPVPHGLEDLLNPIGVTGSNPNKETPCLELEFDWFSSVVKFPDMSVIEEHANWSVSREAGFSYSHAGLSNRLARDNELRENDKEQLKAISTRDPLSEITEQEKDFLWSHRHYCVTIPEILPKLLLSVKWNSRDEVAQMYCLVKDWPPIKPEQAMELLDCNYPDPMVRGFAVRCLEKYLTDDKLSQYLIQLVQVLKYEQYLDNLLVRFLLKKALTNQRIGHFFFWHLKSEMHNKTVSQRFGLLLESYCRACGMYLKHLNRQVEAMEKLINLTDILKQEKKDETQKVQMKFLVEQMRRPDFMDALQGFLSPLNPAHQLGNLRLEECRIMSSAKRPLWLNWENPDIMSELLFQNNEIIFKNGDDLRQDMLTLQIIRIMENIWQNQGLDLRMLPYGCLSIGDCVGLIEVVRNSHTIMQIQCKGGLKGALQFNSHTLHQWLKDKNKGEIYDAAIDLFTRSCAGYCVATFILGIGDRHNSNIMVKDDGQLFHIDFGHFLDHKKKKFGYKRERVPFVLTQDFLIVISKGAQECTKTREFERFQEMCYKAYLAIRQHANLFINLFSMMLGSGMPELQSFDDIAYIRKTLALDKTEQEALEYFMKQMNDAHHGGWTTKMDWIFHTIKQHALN
T1 sequence (P27986 whole entry partner): as the sequence (P27986 whole entry partner) above

- IC50 (PI3Kα): 1.1 nM
- clearance ([1]; read-out: Cl (clearance rate)): 4.16 mL/min/kg
- half-life ([1]; read-out: Intravenous injection T1/2 (converted)): 53.4 min
- Vd ([1]; read-out: Vd (apparent volume of distribution)): 0.257 L/kg
- IC50 (PI3Kδ): 2.1 nM
Structure (SMILES): CNC(=O)CCCn1cnc2ccc(-c3cnc(OC)c(NS(=O)(=O)c4ccc(F)cc4Cl)c3)cc2c1=O [WX198]
- TGI % [2]: 62.6%
